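Compound exposure: 48 hours, 5 concentrations, 96-well plates. At the GI50, growth is halved.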 Calls of active or inactive are those of the source. Rule as the data show it: active = GI50 up to about 1.1 µM and inactive = higher.
Experiments:
Assay in all cases: DTP human tumour cell line panel, 48 h
786-0 = tested on: 786-0
U-251 = tested on: U-251
COLO 205 = tested on: COLO 205
MDA-MB-231 = tested on: MDA-MB-231
SNB-19 = tested on: SNB-19
SK-MEL-5 = tested on: SK-MEL-5
HL-60 = tested on: HL-60
HCT-15 = tested on: HCT-15
T47D = tested on: T47D
SF-268 = tested on: SF-268
Hs-578T = tested on: Hs-578T
K562 = tested on: K562
CAKI-1 = tested on: CAKI-1
UO-31 = tested on: UO-31
HCT-116 = tested on: HCT-116
NCI/ADR-RES = tested on: NCI/ADR-RES
KM12 = tested on: KM12
NCI-H226 = tested on: NCI-H226
CCRF-CEM = tested on: CCRF-CEM
OVCAR-4 = tested on: OVCAR-4

Row | Compound | GI50 (786-0) | GI50 (U-251) | GI50 (COLO 205) | GI50 (MDA-MB-231) | GI50 (SNB-19) | GI50 (SK-MEL-5) | GI50 (HL-60) | GI50 (HCT-15) [µM] | GI50 (T47D) | GI50 (SF-268) | GI50 (Hs-578T) | GI50 (K562) | GI50 (CAKI-1) | GI50 (UO-31) | GI50 (HCT-116) | GI50 (NCI/ADR-RES) | GI50 (KM12) | GI50 (NCI-H226) | GI50 (CCRF-CEM) | GI50 (OVCAR-4)
1 | OC(c1cc(-c2ccc(Cl)cc2)nc2ccccc12)C1CCCCN1 (stereo not given) | 1.93 µM (inactive) | 1.84 µM (inactive) | 1.73 µM (inactive) | 1.95 µM (inactive) | 3.3 µM (inactive) | 2.24 µM (inactive) | 2.39 µM (inactive) | 2.46 | 1.77 µM (inactive) | 2.02 µM (inactive) | 1.99 µM (inactive) | 1.48 µM (inactive) | 2.32 µM (inactive) | 1.15 µM (inactive) | 1.92 µM (inactive) | 2.38 µM (inactive) | 2.26 µM (inactive) | 4.21 µM (inactive) | 0.498 µM (active) | 2.28 µM (inactive)
2 | CCCCCCCCC/C=C/C=C/C(=O)NCC(=O)NC1C(O)C(O)C(Nc2ncnc3[nH]cnc23)OC1C(O)CO (stereo not given) | 0.00217 µM (active) | 0.00149 µM (active) | 0.001 µM (active) | 0.0538 µM (active) | 0.00175 µM (active) | 0.0137 µM (active) | 0.00159 µM (active) | 0.362 | 0.169 µM (active) | 0.0143 µM (active) | 0.00432 µM (active) | 0.063 µM (active) | 0.00692 µM (active) | 0.00196 µM (active) | 0.00323 µM (active) | < 0.01 µM (active) | 0.00263 µM (active) | 0.00133 µM (active) | 2.39 µM (inactive) | 0.00115 µM (active)
3 | CCCCCCCCOc1ccc(/C=C/C2=[N+](CCO)CCO2)cc1 | 3.72 µM (inactive) | 2.86 µM (inactive) | 2.42 µM (inactive) | 3.78 µM (inactive) | 3.83 µM (inactive) | 2.56 µM (inactive) | 2.62 µM (inactive) | 12.1 | 3.35 µM (inactive) | 5.27 µM (inactive) | 3.53 µM (inactive) | 2.07 µM (inactive) | 7.05 µM (inactive) | 12.3 µM (inactive) | 2.7 µM (inactive) | 12.6 µM (inactive) | 3.27 µM (inactive) | 3.01 µM (inactive) | 3.08 µM (inactive) | 3.6 µM (inactive)
4 | CCCCCCCCCCCCCCCCSS(C)(=O)=O | 7.06 µM (inactive) | 55 µM (inactive) | 19.2 µM (inactive) | > 100 µM (inactive) | > 100 µM (inactive) | 32.8 µM (inactive) | 4.07 µM (inactive) | 11 | 8.97 µM (inactive) | 10.7 µM (inactive) | > 100 µM (inactive) | 9.64 µM (inactive) | 10.1 µM (inactive) | 20.8 µM (inactive) | 10.6 µM (inactive) | 2.33 µM (inactive) | > 100 µM (inactive) | > 27.6 µM (inactive) | 3.03 µM (inactive) | 18.7 µM (inactive)
5 | O=c1[nH]cnc2cccc(Cl)c12 | > 100 µM (inactive) | > 100 µM (inactive) | > 100 µM (inactive) | > 100 µM (inactive) | > 100 µM (inactive) | > 100 µM (inactive) | > 100 µM (inactive) | > 100 | > 100 µM (inactive) | > 100 µM (inactive) | > 100 µM (inactive) | > 100 µM (inactive) | > 100 µM (inactive) | > 100 µM (inactive) | > 100 µM (inactive) | > 100 µM (inactive) | > 100 µM (inactive) | > 100 µM (inactive) | > 100 µM (inactive) | > 100 µM (inactive)
6 | COc1cc(OC)cc(Oc2nc3ccccc3nc2C(F)(F)F)c1 | > 100 µM (inactive) | 27.2 µM (inactive) | > 100 µM (inactive) | 14.7 µM (inactive) | 53.7 µM (inactive) | 76.7 µM (inactive) | 22.3 µM (inactive) | 51.4 | > 100 µM (inactive) | 68.4 µM (inactive) | 72.1 µM (inactive) | 9.25 µM (inactive) | > 100 µM (inactive) | > 100 µM (inactive) | > 100 µM (inactive) | > 100 µM (inactive) | > 100 µM (inactive) | > 100 µM (inactive) | 0.986 µM (active) | > 100 µM (inactive)
7 | NS(=O)(=O)c1ccc(NNc2c3ccccc3nc3ccccc23)cc1 | 12.6 µM (inactive) | 11.7 µM (inactive) | 7.29 µM (inactive) | 15.6 µM (inactive) | 14.7 µM (inactive) | 12.7 µM (inactive) | 8.63 µM (inactive) | 10 | 7.52 µM (inactive) | 12.2 µM (inactive) | 14.5 µM (inactive) | 7.89 µM (inactive) | 13 µM (inactive) | 10.9 µM (inactive) | 10.8 µM (inactive) | 14 µM (inactive) | 11.6 µM (inactive) | 10.3 µM (inactive) | 6.28 µM (inactive) | 10.5 µM (inactive)
8 | NC(=O)c1ncn(C2C=CC(CP(=O)(O)O)C2)c1N (stereo not given) | > 100 µM (inactive) | > 100 µM (inactive) | > 100 µM (inactive) | > 100 µM (inactive) | > 100 µM (inactive) | > 100 µM (inactive) | > 100 µM (inactive) | > 100 | > 100 µM (inactive) | > 100 µM (inactive) | > 100 µM (inactive) | > 100 µM (inactive) | > 100 µM (inactive) | > 100 µM (inactive) | > 100 µM (inactive) | > 100 µM (inactive) | > 100 µM (inactive) | > 100 µM (inactive) | > 100 µM (inactive) | > 100 µM (inactive)
9 | COc1ccc(/C=C2\CN(C)Cc3c2nc(O)c(C#N)c3-c2ccc(OC)cc2)cc1 | 18.2 µM (inactive) | 80.2 µM (inactive) | 66.1 µM (inactive) | > 100 µM (inactive) | 34.5 µM (inactive) | > 100 µM (inactive) | 13.3 µM (inactive) | 64.9 | 80.4 µM (inactive) | 26.7 µM (inactive) | 35.1 µM (inactive) | 57.5 µM (inactive) | > 100 µM (inactive) | > 100 µM (inactive) | 60.7 µM (inactive) | 56.2 µM (inactive) | 32.6 µM (inactive) | > 100 µM (inactive) | 40.5 µM (inactive) | 37.1 µM (inactive)
10 | CCOC(=O)C1OC(C2(C)OC3(OC4(C=CC3O)OC(C(C)C(=O)C(C)C(O)C(C)CC(C)c3c(Cl)cc(C)c(O)c3C(=O)O)C(C)CC4C)C(C)C2OC)CC1O (stereo not given) | 0.454 µM (active) | 0.189 µM (active) | 0.818 µM (active) | 1.15 µM (inactive) | 0.249 µM (active) | 0.257 µM (active) | 0.542 µM (active) | 0.453 | 0.955 µM (active) | 0.155 µM (active) | 0.982 µM (active) | 0.505 µM (active) | 0.752 µM (active) | 1.18 µM (inactive) | 0.693 µM (active) | 1.24 µM (inactive) | 1.28 µM (inactive) | 0.24 µM (active) | 0.0828 µM (active) | 0.544 µM (active)
11 | COc1cc(Oc2c(C)c(Cl)c(OC)c(Cl)c2OC)c2c(c1Cl)COC2=O | 17.1 µM (inactive) | 29.8 µM (inactive) | 20.9 µM (inactive) | 24.2 µM (inactive) | 42.2 µM (inactive) | 12.2 µM (inactive) | 7.78 µM (inactive) | 13.9 | 9.73 µM (inactive) | 21.8 µM (inactive) | 54.7 µM (inactive) | 2.32 µM (inactive) | 10.4 µM (inactive) | 10.8 µM (inactive) | 6.34 µM (inactive) | 17.1 µM (inactive) | 20.9 µM (inactive) | 27.9 µM (inactive) | 45.1 µM (inactive) | 10.8 µM (inactive)
12 | O=C(c1ccc(Cl)cc1)N(Cc1cccnc1)C(=S)N(Cc1cccnc1)C(=O)c1ccc(Cl)cc1 | 21.1 µM (inactive) | 22.7 µM (inactive) | 20.5 µM (inactive) | 26.5 µM (inactive) | 41.5 µM (inactive) | 27.5 µM (inactive) | 33.2 µM (inactive) | 33.9 | 57.4 µM (inactive) | 28.3 µM (inactive) | 48.4 µM (inactive) | 22.9 µM (inactive) | 42.4 µM (inactive) | 34.2 µM (inactive) | 27.1 µM (inactive) | 31.2 µM (inactive) | 35.4 µM (inactive) | 43.5 µM (inactive) | 50 µM (inactive) | 23.6 µM (inactive)
13 | CC1=C(C(=O)c2ccccc2)C23C(=O)N(c4ccccc4)C(=O)C2=C(O)C=CC3(O)N1 (stereo not given) | 35 µM (inactive) | 28.1 µM (inactive) | 50.8 µM (inactive) | 28 µM (inactive) | 37.9 µM (inactive) | 17.6 µM (inactive) | 16.6 µM (inactive) | 24.6 | 37.2 µM (inactive) | 38.6 µM (inactive) | > 100 µM (inactive) | 10.9 µM (inactive) | 28.9 µM (inactive) | 12.2 µM (inactive) | 37.9 µM (inactive) | 51.4 µM (inactive) | 23.9 µM (inactive) | 35 µM (inactive) | 35.1 µM (inactive) | 17.8 µM (inactive)
14 | FC(F)(F)c1ccc2c(-c3cc[nH]c3)ccnc2c1 | 17.7 µM (inactive) | 44.3 µM (inactive) | 23.6 µM (inactive) | 40.1 µM (inactive) | 17.5 µM (inactive) | 20.7 µM (inactive) | 16.7 µM (inactive) | > 100 | > 100 µM (inactive) | > 10 µM (inactive) | 23.9 µM (inactive) | 30 µM (inactive) | 31.4 µM (inactive) | 20.9 µM (inactive) | 32.5 µM (inactive) | 37.1 µM (inactive) | 31.8 µM (inactive) | 36.9 µM (inactive) | 32.6 µM (inactive) | 53.2 µM (inactive)
